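In this assay, cells in 96-well plates receive the compound at five concentrations for 48 hours. Endpoints are linearly interpolated between the surrounding concentrations. Abbreviation: GI50, concentration required for 50% inhibition of growth.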 The source made the active and inactive calls. No stated cut-off is given here; in the data, active = GI50 up to about 1.1 µM and inactive = higher.
Legend:
Assay in all cases: inhibition of tumour cell growth, NCI panel, 48 h
A498 = test system: A498
COLO 205 = test system: COLO 205
HOP-92 = test system: HOP-92
K562 = test system: K562
M14 = test system: M14
NCI-H23 = test system: NCI-H23
NCI-H522 = test system: NCI-H522
OVCAR-3 = test system: OVCAR-3
OVCAR-4 = test system: OVCAR-4
RPMI-8226 = test system: RPMI-8226
SK-MEL-5 = test system: SK-MEL-5
SN12C = test system: SN12C
SNB-75 = test system: SNB-75
SW-620 = test system: SW-620
TK-10 = test system: TK-10
UO-31 = test system: UO-31
MDA-MB-231 = test system: MDA-MB-231
MDA-MB-435 = test system: MDA-MB-435
MDA-N = test system: MDA-N
T47D = test system: T47D

| Compound | GI50 (A498) | GI50 (COLO 205) | GI50 (HOP-92) | GI50 (K562) | GI50 (M14) | GI50 (NCI-H23) | GI50 (NCI-H522) | GI50 (OVCAR-3) | GI50 (OVCAR-4) | GI50 (RPMI-8226) | GI50 (SK-MEL-5) | GI50 (SN12C) | GI50 (SNB-75) | GI50 (SW-620) | GI50 (TK-10) | GI50 (UO-31) | GI50 (MDA-MB-231) | GI50 (MDA-MB-435) | GI50 (MDA-N) | GI50 (T47D) |
| --- | --- | --- | --- | --- | --- | --- | --- | --- | --- | --- | --- | --- | --- | --- | --- | --- | --- | --- | --- | --- |
| CC(=O)NC(CCCN)C(=O)NCc1ccccc1 (centres undefined) | > 100 µM (inactive) | > 100 µM (inactive) | > 100 µM (inactive) | > 100 µM (inactive) | > 100 µM (inactive) | > 100 µM (inactive) | > 100 µM (inactive) | > 100 µM (inactive) | > 100 µM (inactive) | > 100 µM (inactive) | > 100 µM (inactive) | > 100 µM (inactive) | > 100 µM (inactive) | > 100 µM (inactive) | > 100 µM (inactive) | > 100 µM (inactive) | – | – | – | – |
| CC1(CO)C(=O)OC12CCCCC2 (centres undefined) | 44.4 µM (inactive) | > 100 µM (inactive) | > 100 µM (inactive) | > 100 µM (inactive) | > 100 µM (inactive) | > 100 µM (inactive) | > 100 µM (inactive) | > 100 µM (inactive) | > 100 µM (inactive) | > 100 µM (inactive) | – | > 100 µM (inactive) | 84.5 µM (inactive) | > 100 µM (inactive) | > 100 µM (inactive) | 63.4 µM (inactive) | – | – | – | – |
| CC(=O)Nc1oc(C)nc1C#N | > 100 µM (inactive) | – | > 100 µM (inactive) | > 100 µM (inactive) | > 100 µM (inactive) | – | – | – | > 100 µM (inactive) | > 100 µM (inactive) | > 100 µM (inactive) | > 100 µM (inactive) | – | > 100 µM (inactive) | > 100 µM (inactive) | – | > 100 µM (inactive) | > 100 µM (inactive) | > 100 µM (inactive) | – |
| CCOC(=O)C(NC(=O)NC(C(=O)OCC)C(=O)OCC)C(=O)OCC | – | – | > 100 µM (inactive) | > 100 µM (inactive) | > 100 µM (inactive) | > 100 µM (inactive) | > 100 µM (inactive) | > 100 µM (inactive) | – | > 100 µM (inactive) | > 100 µM (inactive) | > 100 µM (inactive) | – | > 100 µM (inactive) | > 100 µM (inactive) | > 100 µM (inactive) | – | 98.2 µM (inactive) | > 100 µM (inactive) | – |
| O=C(Cn1c2ccc(Br)cc2c2nc3ccccc3nc21)N/N=C/c1ccccc1 | > 100 µM (inactive) | > 100 µM (inactive) | – | 43.4 µM (inactive) | > 100 µM (inactive) | > 100 µM (inactive) | – | > 100 µM (inactive) | – | > 10 µM (inactive) | > 100 µM (inactive) | > 100 µM (inactive) | 83.9 µM (inactive) | > 100 µM (inactive) | > 100 µM (inactive) | > 100 µM (inactive) | > 100 µM (inactive) | > 100 µM (inactive) | – | > 100 µM (inactive) |
| Clc1nss/c1=N/c1nonc1-c1ccccc1 | 71.6 µM (inactive) | 20.4 µM (inactive) | 40.2 µM (inactive) | 23.2 µM (inactive) | 16 µM (inactive) | 26.1 µM (inactive) | 18.3 µM (inactive) | 39 µM (inactive) | 49.9 µM (inactive) | 27.2 µM (inactive) | 20.3 µM (inactive) | 18 µM (inactive) | 23.2 µM (inactive) | 41.6 µM (inactive) | – | 17.6 µM (inactive) | 14 µM (inactive) | 38.6 µM (inactive) | 20.1 µM (inactive) | – |
| N#C/C(=C\Nc1ccccn1)C(=O)c1ccco1 | > 100 µM (inactive) | > 100 µM (inactive) | > 100 µM (inactive) | > 100 µM (inactive) | > 100 µM (inactive) | > 100 µM (inactive) | > 100 µM (inactive) | > 100 µM (inactive) | > 100 µM (inactive) | > 100 µM (inactive) | > 100 µM (inactive) | > 100 µM (inactive) | > 100 µM (inactive) | > 100 µM (inactive) | > 100 µM (inactive) | > 100 µM (inactive) | > 100 µM (inactive) | > 100 µM (inactive) | > 100 µM (inactive) | – |
| Nc1nnc2nc(CC(=O)/C=C/c3ccccc3)c(=O)[nH]n12 | > 100 µM (inactive) | > 100 µM (inactive) | > 100 µM (inactive) | > 100 µM (inactive) | > 100 µM (inactive) | > 100 µM (inactive) | > 100 µM (inactive) | > 100 µM (inactive) | > 100 µM (inactive) | > 100 µM (inactive) | > 100 µM (inactive) | > 100 µM (inactive) | > 100 µM (inactive) | > 100 µM (inactive) | > 100 µM (inactive) | > 100 µM (inactive) | – | – | – | – |
| CCCCCCN1C(=O)CC(=O)N(CCCCCC)S1(=O)=O | 14.7 µM (inactive) | 17.9 µM (inactive) | 11.6 µM (inactive) | 40.6 µM (inactive) | 32.4 µM (inactive) | 25.7 µM (inactive) | 12.9 µM (inactive) | 21.4 µM (inactive) | 20 µM (inactive) | 24.7 µM (inactive) | 19.8 µM (inactive) | 17.7 µM (inactive) | 17.9 µM (inactive) | 19.1 µM (inactive) | 19.1 µM (inactive) | 1.56 µM (inactive) | 17.1 µM (inactive) | 22.3 µM (inactive) | – | 64.3 µM (inactive) |
| O=C(O)CCSC(=S)Nc1cccc(F)c1 | 30.4 µM (inactive) | 57.5 µM (inactive) | 25 µM (inactive) | 32.3 µM (inactive) | 37.1 µM (inactive) | 36.1 µM (inactive) | – | 33.7 µM (inactive) | 92.3 µM (inactive) | 31.6 µM (inactive) | 20 µM (inactive) | 60.8 µM (inactive) | 82 µM (inactive) | > 100 µM (inactive) | 43.4 µM (inactive) | > 100 µM (inactive) | – | – | – | – |
| CCN(CC)CCOC(=O)c1ccc(N)cc1.CCOC(=O)Nc1ccc(S(=O)(=O)OC)cc1.CCOC(=O)Nc1ccc(S(=O)(=O)OC)cc1.Nc1ccc(C(=O)O)c(O)c1 | > 100 µM (inactive) | – | > 100 µM (inactive) | > 100 µM (inactive) | > 100 µM (inactive) | > 100 µM (inactive) | > 100 µM (inactive) | > 100 µM (inactive) | > 100 µM (inactive) | – | > 100 µM (inactive) | > 100 µM (inactive) | 40.2 µM (inactive) | > 100 µM (inactive) | > 100 µM (inactive) | > 100 µM (inactive) | – | – | – | – |
| COc1cc2cc[n+](C)c(Cc3ccccc3)c2cc1OC | > 100 µM (inactive) | > 100 µM (inactive) | 96.6 µM (inactive) | > 100 µM (inactive) | > 100 µM (inactive) | > 100 µM (inactive) | 86.1 µM (inactive) | > 100 µM (inactive) | > 100 µM (inactive) | > 100 µM (inactive) | > 100 µM (inactive) | > 100 µM (inactive) | > 100 µM (inactive) | > 100 µM (inactive) | > 100 µM (inactive) | > 100 µM (inactive) | – | – | – | – |
| O=c1[nH]nc(-c2ccccc2)n1/N=C/c1cccc([N+](=O)[O-])c1 | > 100 µM (inactive) | > 100 µM (inactive) | > 100 µM (inactive) | > 100 µM (inactive) | > 100 µM (inactive) | > 100 µM (inactive) | 8.15 µM (inactive) | > 100 µM (inactive) | > 100 µM (inactive) | > 100 µM (inactive) | > 100 µM (inactive) | > 100 µM (inactive) | > 100 µM (inactive) | > 100 µM (inactive) | > 100 µM (inactive) | > 100 µM (inactive) | > 100 µM (inactive) | > 100 µM (inactive) | – | > 100 µM (inactive) |
| CCn1c(-c2ccccc2)cs/c1=N\C(P(=O)(O)O)P(=O)(O)O | > 100 µM (inactive) | > 100 µM (inactive) | > 100 µM (inactive) | > 100 µM (inactive) | > 100 µM (inactive) | > 100 µM (inactive) | > 100 µM (inactive) | > 100 µM (inactive) | – | > 100 µM (inactive) | > 100 µM (inactive) | – | > 100 µM (inactive) | > 100 µM (inactive) | > 100 µM (inactive) | > 100 µM (inactive) | > 100 µM (inactive) | > 100 µM (inactive) | > 100 µM (inactive) | – |
| CC1=C(C(=O)Nc2cc(F)c(F)cc2F)C(c2ccc(N(C)C)cc2)C(C(=O)Nc2cc(F)c(F)cc2F)=C(C)N1 | 19.1 µM (inactive) | 43.2 µM (inactive) | 0.53 µM (active) | 23.6 µM (inactive) | 31.3 µM (inactive) | 20.9 µM (inactive) | 19.8 µM (inactive) | 0.432 µM (active) | 17.7 µM (inactive) | 17.2 µM (inactive) | 17.8 µM (inactive) | 30.1 µM (inactive) | 21.5 µM (inactive) | 28.8 µM (inactive) | 32.7 µM (inactive) | 17.1 µM (inactive) | – | – | – | – |
| C=C1CC2CC(=O)C(O)C(C1)C2 (centres undefined) | > 100 µM (inactive) | > 100 µM (inactive) | > 100 µM (inactive) | > 100 µM (inactive) | > 100 µM (inactive) | 90.8 µM (inactive) | > 100 µM (inactive) | > 100 µM (inactive) | – | > 100 µM (inactive) | > 100 µM (inactive) | > 100 µM (inactive) | 58.5 µM (inactive) | > 100 µM (inactive) | > 100 µM (inactive) | > 100 µM (inactive) | – | > 100 µM (inactive) | > 100 µM (inactive) | 69 µM (inactive) |
| CCn1c(=O)c2c(=O)[nH][nH]c2c2ccccc21 | > 100 µM (inactive) | > 100 µM (inactive) | > 100 µM (inactive) | > 100 µM (inactive) | – | > 100 µM (inactive) | > 100 µM (inactive) | > 100 µM (inactive) | > 100 µM (inactive) | > 100 µM (inactive) | > 100 µM (inactive) | > 100 µM (inactive) | > 100 µM (inactive) | > 100 µM (inactive) | > 100 µM (inactive) | > 100 µM (inactive) | > 100 µM (inactive) | > 100 µM (inactive) | > 100 µM (inactive) | – |
